Laboratory results reported in the NIST ThermoML archive (doi:10.1016/j.fluid.2012.06.014).
± gives the expanded uncertainty stated by the source.

Settings: for viscosity / mass density: 101.33 kPa, Liquid; for viscosity: Capillary tube (Ostwald / Ubbelohde) method; for mass density: Vibrating tube method

CCCCCCn1cc[n+](C)c1.N#C[B-](C#N)(C#N)C#N [1-hexyl-3-methylimidazolium tetracyanoborate]
Settings | mass density [kg/m3] | viscosity [mPa·s]
293.15 K | 993.4 ± 0.2 | 66.61 ± 0.82
298.15 K | 989.8 ± 0.2 | 49.8 ± 0.65
303.15 K | 986.2 ± 0.2 | 38.92 ± 0.47
308.15 K | 982.7 ± 0.2 | 31.04 ± 0.37
313.15 K | 979.1 ± 0.2 | 25.2 ± 0.3
318.15 K | 975.6 ± 0.2 | 20.8 ± 0.26
323.15 K | 972.1 ± 0.2 | 17.41 ± 0.23
328.14 K | 968.6 ± 0.2 | 14.76 ± 0.21
333.14 K | 965.2 ± 0.2 | 12.66 ± 0.2
338.14 K | 961.7 ± 0.2 | 10.97 ± 0.19
343.14 K | 958.3 ± 0.2 | 9.584 ± 0.18
348.14 K | 954.9 ± 0.2 | 8.445 ± 0.17
353.15 K | 951.5 ± 0.2 | 7.497 ± 0.17
358.14 K | 948.1 ± 0.2 | 6.701 ± 0.17
363.14 K | 944.8 ± 0.2 | 6.026 ± 0.17

Settings | surface tension liquid-gas [mN/m]
298.15 K, Pendant drop shape | 41.1 ± 0.7
